Patent publication US20200165194A1, “ADDITIVE COMPOSITION FOR CULTURE MEDIUM, ADDITIVE COMPOUND FOR CULTURE MEDIUM, AND METHOD FOR CULTURE OF CELLS OR TISSUE USING SAME” (NISSAN CHEMICAL CORPORATION, priority 2017, published 2020)
Read-outs that look alike come from different tables or passages of the source.

How the values were obtained:
[1] = tested on: SKOV3 cells (human ovarian cancer-derived cell line); assay: Cell proliferation activity in three-dimensional medium FCeM, ATP assay (Experimental Example 1); format: cell-based; conditions: SKOV3, 3D medium FCeM, 4 days, DMSO control = 100%, average of two tests; for proliferation rate (%): compound 5 μM
Experimental: A cell proliferation promoting effect when the compound to be used in the present invention was added to a three-dimensional medium was studied. Specifically, precultured (adhesion cultured) SKOV3 cells (human ovarian cancer-derived cell line) were recovered and suspended in a three-dimensional cell culture medium (“FCeM (registered trade mark)” (Nissan chemical corporation)) to prepare a cell suspension. […] The cell suspension seeded in the plate was stood overnight at 37° C., 5% CO2. Then, a DMSO diluted solution (4.44 μL) of the compound to be used in the present invention was added at a final concentration of 5 μM (or two steps of […] and 10 μM) (no stirring after addition). After addition of each compound, the mixtures were stood for 4 days at 37° C., 5% CO2. […] The luminescence intensity (RLU value) was measured by FlexStation3 (manufactured by Molecular Devices), and cell proliferation was evaluated.
The proliferation rate was calculated based on the control (cells added with DMSO without containing the compound to be used in the present invention) as the standard (100%). The values shown in the tables are average values of the results of two tests.

[2] = tested on: human ovarian cancer cell line SKOV3; assay: Action on SKOV3 cell-2: 3D (deacylated gellan gum) and 2D culture, EGF medium, ATP assay (Experimental Example 3); conditions: for relative value of RLU (number of viable cells) / viability at 1 µM / viability at 5 µM / viability at 10 µM / viability at 20 µM: 4 days, compound non-addition = 100%; for viability at 1 µM / viability at 5 µM / viability at 10 µM / viability at 20 µM: Homo sapiens, SK-OV-3, 96 h
Experimental: According to the method of patent document 1 (WO 2014/017513), a composition of McCoy's 5a medium (manufactured by Sigma-Aldrich) containing 0.015% (w/v) deacylated gellan gum (KELCOGEL CG-LA, manufactured by Sansho Co., Ltd.) and 15% (v/v) FBS, 30 ng/mL human EGF (manufactured by PEPROTECH) was prepared using FCeM-series Preparation Kit (manufactured by Wako Pure Chemical Industries, Ltd.). In a single layer culture, a non-addition medium composition not containing deacylated gellan gum was prepared. Then, human ovarian cancer cell line SKOV3 (manufactured by DS PHARMA BIO MEDICAL) was suspended in the above-mentioned medium composition added with deacylated gellan gum, and dispensed into the wells of a 384 well flat bottom Ultr-low Attachment surface microplate (manufactured by Corning Incorporated, #3827) at 1000 cells/36 μL/well (three-dimensional culture (3D)). In a single layer culture (2D), human ovarian cancer cell line SKOV3 was suspended in the above-mentioned medium composition not containing deacylated gellan gum, and dispensed into the wells of a 384 well flat bottom microplate (manufactured by Corning Incorporated, #3712) at 400 cells/36 μL per well. After dispensing, the compound to be used in the present invention dissolved in dimethyl sulfoxide (DMSO) was added by 4 μL each at a final concentration of 0, 1, 5, 10, 20 μM, and continuously cultured for 4 days. Each plate was cultured in a standing state in a CO2 incubator (37° C., 5% CO2) for 4 days. An ATP reagent (40 μL) (CellTiter-Glo (registered trade mark) Luminescent Cell Viability Assay, manufactured by Promega) was added to the culture medium on day 4, and the mixture was stirred by a plateshaker (manufactured by AS ONE Corporation, Micro plate mixer NS-P) at room temperature for 15 min. The luminescence intensity (RLU value) was measured by EnSpire (manufactured by Perkin Elmer) and the luminescence value of the medium alone was subtracted to measure the number of viable cells.

hiPS cell line 253G1 = assay: Human pluripotent stem cell (hiPS cell), EZSPHERE plate, ATP assay (Experimental Example 13); format: cell-based
Experimental: hiPS cell line 253G1 (purchased from RIKEN) was cultured on a dish coated with vitronectin VTN-N (manufactured by Thermo Fisher Scientific) using mTeSR1 (registered trade mark) medium (manufactured by STEMCELL Technologies). The above-mentioned cells in the proliferation phase were washed with PBS (manufactured by Fujifilm Corporation Wako Pure Chemical Industries, Ltd.), TrypLE Select (registered trade mark) (manufactured by Thermo Fisher Scientific) was added and the mixture was incubated at 37° C. for 3 min to remove the detaching solution. The medium was added and the cells were detached by pipetting. Thereafter, the supernatant was removed by centrifugation.
The aforementioned cells were suspended in a medium containing 10 μM Y-27632 (manufactured by Fujifilm Corporation Wako Pure Chemical Industries, Ltd.) and seeded in a 96-well EZSPHERE plate (manufactured by AGC TECHNO GLASS CO., LTD., #4860-900) at a cell concentration of 10000 cells/200 μL/well. […] The amount of each compound solution to be added was 2 μL/well. As a control, a DMSO solution dissolved in a medium was added (DMSO final concentration 0.05%). The medium was exchanged by half the volume every day, and each compound solution was also added to make the compound concentration constant.

[3] = 3D culture (deacylated gellan gum), 1 μM
[4] = 3D culture (deacylated gellan gum), 5 μM
[5] = 3D culture (deacylated gellan gum), 10 μM
[6] = 3D culture (deacylated gellan gum), 20 μM
[7] = single layer culture (2D) of SKOV3 cells
[8] = three-dimensional culture (3D) of SKOV3 cells

CC(=NNC(=O)CNc1ccc(C)cc1)c1ccc(O)c(C)c1O [k-2:H-4]
proliferation rate (%) [1]: 128.2%

CC(=NNC(=O)CNc1cccc2ccccc12)c1ccc(O)c(C)c1O [k-2:H-6]
proliferation rate (%) [1]: 116.79%

CCOc1ccc(NCC(=O)NN=C(CC)c2ccc(O)c(C)c2O)cc1 [k-1:H-9]
proliferation rate (%) [1]: 95.96%

CCC(=NNC(=O)CNc1ccccc1C)c1ccc(O)c(C)c1O [k-1:H-2]
proliferation rate (%) [1]: 147.27%

CC(=NNC(=O)CNc1ccccc1C)c1ccc(O)c(C)c1O [k-2:H-2]
proliferation rate (%) [1]: 131.13%

Cc1c(O)ccc(C(CC(C)C)=NNC(=O)CNc2ccccc2)c1O [k-5:H-1]
proliferation rate (%) [1]: 148.88%

CC(=NNC(=O)CNc1cccc(C)c1)c1ccc(O)c(C)c1O [k-2:H-3]
proliferation rate (%) [1]: 139.33%

CCC(=NNC(=O)CNc1ccc(F)cc1)c1ccc(O)c(C)c1O [k-1:H-5]
proliferation rate (%) [1]: 154.19%

CCC(=NNC(=O)C(CC)Nc1ccccc1)c1c(O)cc(O)c(C)c1O (stereo not shown) [k-3:H-7]
proliferation rate (%) [1]: 126.34%

CCC(=NNC(=O)NC(C)c1cccc(O)c1)c1ccc(O)c(C)c1O (stereo not shown) [k-1:I-10]
relative value of RLU (number of viable cells) ([2]; 2D single layer culture, 1 μM): 99%
relative value of RLU (number of viable cells) ([2]; 2D single layer culture, 5 μM): 98%
relative value of RLU (number of viable cells) ([2]; 2D single layer culture, 10 μM): 99%
relative value of RLU (number of viable cells) ([2]; 2D single layer culture, 20 μM): 100%
relative value of RLU (number of viable cells) [2, 3]: 100%
relative value of RLU (number of viable cells) [2, 4]: 135%
relative value of RLU (number of viable cells) [2, 5]: 181%
relative value of RLU (number of viable cells) [2, 6]: 197%
cell proliferation promoting effect (in words) [2, 7]: a favorable cell proliferation promoting effect was not observed
cell proliferation promoting effect (in words) [2, 8]: exhibited cell proliferation promoting effect at a wide concentration range
relative value (%) (hiPS cell line 253G1; hiPS 253G1, EZSPHERE plate, 5 μM, 3 days, RLU of DMSO addition = 100%): 194%
proliferation activity (in words) (hiPS cell line 253G1; human pluripotent stem cells under three-dimensional conditions): promoted proliferation activity in human pluripotent stem cells

Cc1c(O)ccc(C(CC(C)C)=NNC(=O)CNc2ccc(F)cc2)c1O [k-5:H-5]
proliferation rate (%) [1]: 145.4%

CCOc1ccc(NCC(=O)NN=C(C)c2ccc(O)c(C)c2O)cc1 [k-2:H-9]
proliferation rate (%) [1]: 131.36%

CC/C(=N\NC(=O)OCc1cccc(O)c1)c1ccc(O)c(C)c1O [k-1:N-1]
viability at 1 µM ([2]; read-out: relative value of RLU (number of viable cells), 2D single layer culture, 1 μM): 101%
viability at 5 µM ([2]; read-out: relative value of RLU (number of viable cells), 2D single layer culture, 5 μM): 94%
viability at 10 µM ([2]; read-out: relative value of RLU (number of viable cells), 2D single layer culture, 10 μM): 89%
viability at 20 µM ([2]; read-out: relative value of RLU (number of viable cells), 2D single layer culture, 20 μM): 84%
viability at 1 µM ([2]; read-out: relative value of RLU (number of viable cells), 3D culture (deacylated gellan gum), 1 μM): 101%
viability at 5 µM ([2]; read-out: relative value of RLU (number of viable cells), 3D culture (deacylated gellan gum), 5 μM): 134%
viability at 10 µM ([2]; read-out: relative value of RLU (number of viable cells), 3D culture (deacylated gellan gum), 10 μM): 169%
viability at 20 µM ([2]; read-out: relative value of RLU (number of viable cells), 3D culture (deacylated gellan gum), 20 μM): 186%
cell proliferation promoting effect (in words) [2, 7]: a favorable cell proliferation promoting effect was not observed
cell proliferation promoting effect (in words) [2, 8]: exhibited cell proliferation promoting effect at a wide concentration range

CCC(Nc1ccccc1)C(=O)NN=C(C)c1ccc(O)c(C)c1O (stereo not shown) [k-2:H-7]
proliferation rate (%) [1]: 201.93%

CC(=NNC(=O)CNc1ccccc1)c1ccc(O)c(C)c1O [k-2:H-1]
proliferation rate (%) [1]: 184.61%

Cc1cccc(NCC(=O)NN=C(CC(C)C)c2ccc(O)c(C)c2O)c1 [k-5:H-3]
proliferation rate (%) [1]: 146.44%

Cc1ccccc1NCC(=O)NN=C(CC(C)C)c1ccc(O)c(C)c1O [k-5:H-2]
proliferation rate (%) [1]: 133.96%

CCOc1ccc(NCC(=O)NN=C(CC)c2c(O)cc(O)c(C)c2O)cc1 [k-3:H-9]
proliferation rate (%) [1]: 129.93%

CCC(=NNC(=O)CNc1ccc(F)cc1)c1c(O)cc(O)c(C)c1O [k-3:H-5]
proliferation rate (%) [1]: 141.82%

CCC(=NNC(=O)CNc1cccc2ccccc12)c1ccc(O)c(C)c1O [k-1:H-6]
proliferation rate (%) [1]: 125.68%

CCC(=NNC(=O)CNc1ccc(C)cc1)c1c(O)cc(O)c(C)c1O [k-3:H-4]
proliferation rate (%) [1]: 135.5%

CCC(Nc1ccccc1)C(=O)NN=C(CC(C)C)c1ccc(O)c(C)c1O (stereo not shown) [k-5:H-7]
proliferation rate (%) [1]: 130.63%

CCC(=NNC(=O)CNc1cccc(C)c1)c1c(O)cc(O)c(C)c1O [k-3:H-3]
proliferation rate (%) [1]: 134.65%

CCC(=NNC(=O)CNc1ccc(C)cc1)c1ccc(O)c(C)c1O [k-1:H-4]
proliferation rate (%) [1]: 105.07%

CCC(=NNC(=O)CNc1ccc(O)cc1)c1ccc(O)c(C)c1O [k-1:D-2]
relative value of RLU (number of viable cells) ([2]; 2D single layer culture, 1 μM): 101%
relative value of RLU (number of viable cells) ([2]; 2D single layer culture, 5 μM): 94%
relative value of RLU (number of viable cells) ([2]; 2D single layer culture, 10 μM): 82%
relative value of RLU (number of viable cells) ([2]; 2D single layer culture, 20 μM): 59%
relative value of RLU (number of viable cells) [2, 3]: 116%
relative value of RLU (number of viable cells) [2, 4]: 129%
relative value of RLU (number of viable cells) [2, 5]: 143%
relative value of RLU (number of viable cells) [2, 6]: 126%
cell proliferation promoting effect (in words) [2, 7]: a favorable cell proliferation promoting effect was not observed
cell proliferation promoting effect (in words) [2, 8]: exhibited cell proliferation promoting effect at a wide concentration range

CCC(=NNC(=O)CNc1ccccc1)c1c(O)cc(O)c(C)c1O [k-3:H-1]
proliferation rate (%) [1]: 133.76%

CCC(=NNC(=O)CNc1cccc2ccccc12)c1c(O)cc(O)c(C)c1O [k-3:H-6]
proliferation rate (%) [1]: 134.6%

CCOc1ccc(NCC(=O)NN=C(CC(C)C)c2ccc(O)c(C)c2O)cc1 [k-5:H-9]
proliferation rate (%) [1]: 38.38%

Cc1ccc(NCC(=O)NN=C(CC(C)C)c2ccc(O)c(C)c2O)cc1 [k-5:H-4]
proliferation rate (%) [1]: 114.76%

CCOC(=O)C/N=C(\CC)c1ccc(O)c(C)c1O [k-1:A-1]
proliferation rate (%) (5 μM) [1]: 119.1%
proliferation rate (%) (10 μM) [1]: 119.4%

CC(=NNC(=O)CNc1ccc(F)cc1)c1ccc(O)c(C)c1O [k-2:H-5]
proliferation rate (%) [1]: 158.56%

Cc1c(O)ccc(C(CC(C)C)=NNC(=O)CNc2cccc3ccccc23)c1O [k-5:H-6]
proliferation rate (%) [1]: 115.2%

CCCCCCCC/N=C(\CC)c1ccc(O)c(C)c1O [k-1:A-3]
proliferation rate (%) (5 μM) [1]: 118.1%
proliferation rate (%) (10 μM) [1]: 112.6%

CCC(=NNC(=O)CNc1cccc(C)c1)c1ccc(O)c(C)c1O [k-1:H-3]
proliferation rate (%) [1]: 168.98%

CC/C(=N\CC(=O)OCc1ccccc1)c1ccc(O)c(C)c1O [k-1:A-2]
proliferation rate (%) (5 μM) [1]: 118.8%
proliferation rate (%) (10 μM) [1]: 129.4%

CC/C(=N\C(=O)Nc1ccccc1)c1ccc(O)c(C)c1O [k-1:A-5]
proliferation rate (%) (5 μM) [1]: 113%
proliferation rate (%) (10 μM) [1]: 124.3%

CCC(=NNC(=O)CNc1ccccc1C)c1c(O)cc(O)c(C)c1O [k-3:H-2]
proliferation rate (%) [1]: 117.84%
